Laboratory results as given in patent US8344010B2, “Fused imidazole derivatives as TRPV3 antagonist” (Glenmark Pharmaceuticals S.A., priority 2008, dated 2013).

Target: T1, Human TRPV3 (Homo sapiens, UniProt Q8NET8)
T1 construct: expressed in transfected cells; host or cells: CHO cells (selected with G-418)
T1 sequence (Q8NET8 1-790): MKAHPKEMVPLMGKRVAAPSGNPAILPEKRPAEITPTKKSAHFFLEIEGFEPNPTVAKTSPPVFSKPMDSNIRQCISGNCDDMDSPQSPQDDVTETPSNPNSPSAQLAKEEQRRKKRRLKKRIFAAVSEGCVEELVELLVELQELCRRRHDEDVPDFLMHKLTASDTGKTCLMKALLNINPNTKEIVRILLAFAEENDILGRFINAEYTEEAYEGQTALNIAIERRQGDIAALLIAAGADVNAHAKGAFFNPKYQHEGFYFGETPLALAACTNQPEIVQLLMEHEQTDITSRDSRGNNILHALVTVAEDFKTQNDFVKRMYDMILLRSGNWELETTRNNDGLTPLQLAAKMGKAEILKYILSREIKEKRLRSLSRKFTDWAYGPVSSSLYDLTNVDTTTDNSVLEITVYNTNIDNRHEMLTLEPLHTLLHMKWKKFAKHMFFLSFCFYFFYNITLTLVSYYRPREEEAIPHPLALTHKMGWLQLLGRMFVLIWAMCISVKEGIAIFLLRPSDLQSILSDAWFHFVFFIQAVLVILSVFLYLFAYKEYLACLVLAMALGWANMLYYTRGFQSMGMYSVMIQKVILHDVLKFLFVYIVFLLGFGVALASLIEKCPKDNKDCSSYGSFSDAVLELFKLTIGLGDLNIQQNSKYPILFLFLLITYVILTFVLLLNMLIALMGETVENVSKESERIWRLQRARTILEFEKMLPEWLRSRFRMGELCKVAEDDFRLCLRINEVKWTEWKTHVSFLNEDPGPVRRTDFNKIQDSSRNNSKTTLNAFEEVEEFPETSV
Test: 45Calcium uptake assay: inhibition of 2-APB induced cellular uptake of radioactive calcium
Type: cell-based
Settings: human TRPV3 expressing CHO cells, 2-APB 500 μM; for inhibition at 1 µM: 1 μM test compound, read-out: Percentage Inhibition (1 μM); for inhibition at 10 µM: 10 μM test compound, read-out: Percentage Inhibition (10 μM); for IC50: class symbol
Text: The illustrative examples of the present invention are screened for TRPV3 activity according to a modified procedure described in Tóth, A., Kedei, N., Wang, Y. and Blumberg, P. M. Life Sciences (2003), 73, 487-498. The screening of the compounds can be carried out by other methods and procedures known to a person skilled in the art. Such screening methods may be found in (a) Hu, H.-Z. et al. J. Biol. Chem. (2004), 279, 35741-35747; (b) Smith, G. D. et al. Nature (2002), 418, 186-190; (c) Peier, A. M. et al. Science (2002), 296, 2046-2049.
Screening for TRPV3 antagonist using the ^45Calcium uptake assay The inhibition of TRPV3 receptor activation was followed as inhibition of 2-aminoethoxydiphenylborate (2-APB) induced cellular uptake of radioactive calcium. Test compounds were dissolved in dimethyl sulfoxide (DMSO) to prepare 20 mM stock solution and then diluted using plain medium with DMEM/F-12 containing 1.8 mM CaCl2 to get desired concentration. Final concentration of DMSO in the reaction was 0.5% (v/v). Human TRPV3 expressing CHO cells were grown in DMEM/F-12 medium with 10% FBS, 1% penicillin-streptomycin solution, 400 μg/ml of G-418. Cells were seeded 24 h prior to the assay in 96 well plates so as to get ˜50,000 cells per well on the day of experiment. Cells were treated with test compounds for 10 minutes followed by addition of 2-APB at a final concentration of 500 μM and 5 μCi/ml^45Ca^+2 for 4 minutes. Cells were washed and lysed using buffer containing 1% Triton X-100, 0.1% deoxycholate and 0.1% SDS. Radioactivity in the lysate was measured in Packardt Top count after addition of liquid scintillant. Concentration response curves were plotted as a % of maximal response obtained in the absence of test antagonist. IC50 value was calculated from concentration response curve by nonlinear regression analysis using GraphPad PRISM software.
Percentage inhibition at concentrations of 1.0 μM and 10.0 μM are given in the table along with IC50 details for selected examples.

COc1cccc(/C=C/c2nc3ccccc3n2-c2ncc(C#N)s2)c1OC1CCCC1 [Example 48, 2-{2-[(E)-2-(2-[Cyclopentyloxy]-3-methoxyphenyl)vinyl]-1H-benzimidazol-1-yl}-1,3-thiazole-5-carbonitrile] was tested, and the inhibition at 1 µM was 43.5% and the inhibition at 10 µM was 75.8%.

Molecule COc1cccc(/C=C/c2nc3ccccc3n2-c2nc(C)c(C#N)s2)c1OC1CCCC1 [Example 49, 2-{2-[(E)-2-(2-Cyclopentyloxy-3-methoxyphenyl)vinyl]-1H-benzimidazol-1-yl}-4-methyl-1,3-thiazole-5-carbonitrile] has an inhibition at 1 µM of 56.1% and an inhibition at 10 µM of 76.9%.

Molecule COc1cccc(/C=C/c2nc3ccccc3n2-c2nc3ccccc3s2)c1OCC1CC1 [Example 50, 2-{2-[(E)-2-(2-Cyclopropylmethoxy-3-methoxyphenyl)vinyl]-1H-benzimidazol-1-yl}-1,3-benzothiazole] has an inhibition at 1 µM of 26.1% and an inhibition at 10 µM of 46.6%.

COc1ccc2nc(/C=C/c3cccc(OC)c3OC3CCCC3)n(-c3ccc(C#N)cn3)c2c1 [Example 51, 6-{2-[(E)-2-(2-Cyclopentyloxy-3-methoxyphenyl)vinyl]-6-methoxy-1H-benzimidazol-1-yl}nicotinonitrile] showed an inhibition at 1 µM of 96.2%, an inhibition at 10 µM of 97.8% and an IC50 of 0.05 to 0.1 µM.

COc1cccc(/C=C/c2nc3ccc(Cl)cc3n2-c2ccc(C#N)cn2)c1OCC(C)C [Example 52, 6-(6-Chloro-2-{(E)-2-[3-methoxy-2-(2-methylpropoxy)phenyl]ethenyl}-1H-benzimidazol-1-yl)pyridine-3-carbonitrile] was tested, and the inhibition at 1 µM was 97.7%, the inhibition at 10 µM was 98.4% and the IC50 was 0.05 to 0.1 µM.

With COc1cccc(/C=C/c2nc3ccc(F)cc3n2-c2ccc(C#N)cn2)c1OC1CCCC1 [Example 53, 6-{2-[(E)-2-(2-Cyclopentyloxy-3-methoxyphenyl)vinyl]-6-fluoro-1H-benzimidazol-1-yl}nicotinonitrile] the inhibition at 1 µM was 96%, the inhibition at 10 µM was 98.7% and the IC50 was 0.1 to 0.5 µM.

COc1cccc(/C=C/c2nc3ccc(Cl)cc3n2-c2ccc(C#N)cn2)c1OC1CCCC1 [Example 54, 6-{6-Chloro-2-[(E)-2-(2-cyclopentyloxy-3-methoxyphenyl)vinyl]-1H-benzimidazol-1-yl}nicotinonitrile] gave an inhibition at 1 µM of 95.3%, an inhibition at 10 µM of 97.7% and an IC50 of 0.05 to 0.1 µM.

COc1cccc(/C=C/c2nc3cc(Cl)ccc3n2-c2ccc(C#N)cn2)c1OC1CCCC1 [Example 55, 6-{5-chloro-2-[(E)-2-(2-cyclopentyloxy-3-methoxyphenyl)vinyl]-1H-benzimidazol-1-yl}nicotinonitrile] gave an inhibition at 1 µM of 95.9%, an inhibition at 10 µM of 97.6% and an IC50 of 0.1 to 0.5 µM.

For COc1ccc2c(c1)nc(/C=C/c1cccc(OC)c1OC1CCCC1)n2-c1ccc(C#N)cn1 [Example 56, 6-{2-[(E)-2-(2-[Cyclopentyloxy]-3-methoxyphenyl)vinyl]-5-methoxy-1H-benzimidazol-1-yl}nicotinonitrile], the inhibition at 1 µM was 96.8%, the inhibition at 10 µM was 98.9% and the IC50 was 0.1 to 0.5 µM.

For COc1cccc(/C=C/c2nc3cc(C(F)(F)F)ccc3n2-c2ccc(C#N)cn2)c1OC1CCCC1 [Example 57, 6-{2-[(E)-2-(2-[Cyclopentyloxy]-3-methoxyphenyl)vinyl]-5-(trifluoromethyl)-1H-benzimidazol-1-yl}nicotinonitrile], the inhibition at 1 µM was 93%, the inhibition at 10 µM was 96.1% and the IC50 was 0.1 to 0.5 µM.

With COc1cccc(/C=C/c2nc3ccc(OC(F)F)cc3n2-c2ccc(C#N)cn2)c1OC1CCCC1 [Example 58, 6-{6-(Difluoromethoxy)-2-[(E)-2-(2-[cyclopentyloxy]-3-methoxyphenyl)vinyl]-1H-benzimidazol-1-yl}nicotinonitrile] the inhibition at 1 µM was 96.3%, the inhibition at 10 µM was 97.9% and the IC50 was 0.1 to 0.5 µM.

With COc1cccc(/C=C/c2nc3cc(OC(F)F)ccc3n2-c2ccc(C#N)cn2)c1OC1CCCC1 [Example 59, 6-{2-[(E)-2-(2-[Cyclopentyloxy]-3-methoxyphenyl)vinyl]-5-(difluoromethoxy)-1H-benzimidazol-1-yl}nicotinonitrile] the inhibition at 1 µM was 95.8%, the inhibition at 10 µM was 97.9% and the IC50 was 0.05 to 0.1 µM.

In the case of COC(=O)c1ccc(-n2c(/C=C/c3cccc(OC)c3OC3CCCC3)nc3ccc(F)cc32)nc1 [Example 60, Methyl 6-{2-[(E)-2-(2-Cyclopentyloxy-3-methoxyphenyl)vinyl]-6-fluoro-1H-benzimidazol-1-yl}nicotinate], the inhibition at 1 µM is reported as 32.1% and the inhibition at 10 µM is reported as 30.2%.

Molecule COc1cccc(/C=C/c2nc3cc(F)c(F)cc3n2-c2ncccc2C#N)c1OC1CCCC1 [Example 61, 2-{2-[(E)-2-(2-Cyclopentyloxy-3-methoxyphenyl)vinyl]-5,6-difluoro-1H-benzimidazol-1-yl}nicotinonitrile] has an inhibition at 1 µM of 44.8% and an inhibition at 10 µM of 96%.

In the case of COc1cccc(/C=C/c2nc3cc(C)c(C)cc3n2-c2ccc(C#N)cn2)c1OC1CCCC1 [Example 62, 6-{2-[(E)-2-(2-[Cyclopentyloxy]-3-methoxyphenyl)vinyl]-5,6-dimethyl-1H-benzimidazol-1-yl}nicotinonitrile], the inhibition at 1 µM is reported as 92%, the inhibition at 10 µM is reported as 95.9% and the IC50 is reported as 0.1 to 0.5 µM.

Molecule CCOc1c(/C=C/c2nc3cc(F)c(F)cc3n2-c2ccc(C#N)cn2)cccc1OC [Example 63, 6-{2-[(E)-2-(2-Ethoxy-3-methoxyphenyl)vinyl]-5,6-difluoro-1H-benzimidazol-1-yl}nicotinonitrile] has an inhibition at 1 µM of 80.8%, an inhibition at 10 µM of 97.7% and an IC50 of 0.1 to 0.5 µM.

CCCCOc1c(/C=C/c2nc3cc(F)c(F)cc3n2-c2ccc(C#N)cn2)cccc1OC [Example 64, 6-{2-[(E)-2-(2-Butoxy-3-methoxyphenyl)vinyl]-5,6-difluoro-1H-benzimidazol-1-yl}-nicotinonitrile] showed an inhibition at 1 µM of 96.4%, an inhibition at 10 µM of 99.9% and an IC50 of 0.1 to 0.5 µM.

CCCCCOc1c(/C=C/c2nc3cc(F)c(F)cc3n2-c2ccc(C#N)cn2)cccc1OC [Example 65, 6-{5,6-Difluoro-2-[(E)-2-(2-pentoxy-3-methoxyphenyl)vinyl]-1H-benzimidazol-1-yl}nicotinonitrile] gave an inhibition at 1 µM of 94.9%, an inhibition at 10 µM of 97.4% and an IC50 of 0.05 to 0.1 µM.

In the case of COc1cccc(/C=C/c2nc3cc(F)c(F)cc3n2-c2ccc(C#N)cn2)c1OCC(C)C [Example 66, 6-{5,6-Difluoro-2-[(E)-2-(2-isobutoxy-3-methoxyphenyl)vinyl]-1H-benzimidazol-1-yl}nicotinonitrile], the inhibition at 1 µM is reported as 98.6%, the inhibition at 10 µM is reported as 99.5% and the IC50 is reported as 0.1 to 0.5 µM.

With COc1cccc(/C=C/c2nc3cc(F)c(F)cc3n2-c2ccc(C#N)cn2)c1OCC1CCC1 [Example 67] the inhibition at 1 µM was 95.5%, the inhibition at 10 µM was 99% and the IC50 was < 0.05 µM.

With COc1cccc(/C=C/c2nc3cc(F)c(F)cc3n2-c2ccc(C#N)cn2)c1OC1CCCC1 [Example 68, 6-{2-[(E)-2-(2-Cyclopentyloxy-3-methoxyphenyl)vinyl]-5,6-difluoro-1H-benzimidazol-1-yl}nicotinonitrile] the inhibition at 1 µM was 95%, the inhibition at 10 µM was 99.1% and the IC50 was 0.05 to 0.1 µM.

COc1cccc(/C=C/c2nc3cc(F)c(F)cc3n2-c2ccc(C#N)cn2)c1O [Example 69, 6-{5,6-Difluoro-2-[(E)-2-(2-hydroxy-3-methoxyphenyl)vinyl]-1H-benzimidazol-1-yl}nicotinonitrile] gave an inhibition at 1 µM of 32.7% and an inhibition at 10 µM of 95.5%.
